According to patent US6670383B2, “Pyranocoumarin compounds as a novel pharmacophore with anti-TB activity” (priority 2001, dated 2003):
Values after ≈ are worked out from the molar mass of the structure shown. Read-outs that look alike come from different tables or passages of the source.

Legend:
Experiment in all cases: microbe, parasite or virus in culture
Format in all cases: cell-based
[1] = system: M. tuberculosis strain 1369
[2] = system: M. tuberculosis strain 1371
[3] = system: M. tuberculosis strain 1348
[4] = system: M. tuberculosis strain 1356
[5] = Mycobacterium tuberculosis, 1369
[6] = Mycobacterium tuberculosis, 1371
[7] = Mycobacterium tuberculosis, 1348
[8] = Mycobacterium tuberculosis, 1356

Row | Molecule | fold resistance [1] | MIC [1, 5] [µg/mL] | fold resistance [2] | MIC [2, 6] [µg/mL] | fold resistance [3] | MIC [3, 7] [µg/mL] | fold resistance [4] | MIC [4, 8] [µg/mL] | fold resistance ([1]; strain 1369) [fold] | fold resistance ([2]; strain 1371) | fold resistance ([3]; strain 1348) [fold] | fold resistance ([4]; strain 1356) [fold] | MIC ([1]; strain 1369) [µg/mL] | MIC ([2]; strain 1371) [µg/mL] | MIC ([3]; strain 1348) [µg/mL] | MIC ([4]; strain 1356) [µg/mL]
1 | NNC(=O)c1ccncc1 [Isoniazid] | 0.031 (1) fold | 0.031 (≈ 0.226 µM) | 0.031 (1) fold | 0.031 (≈ 0.226 µM) | >128 (>4100) fold | > 128 | 0.25 (8) fold | 0.25 (≈ 1.82 µM) |  |  |  |  |  |  |  | 
2 | CC[C@@H](CO)NCCN[C@@H](CC)CO [Ethambutol] |  | 2 (≈ 9.79 µM) |  | 2 (≈ 9.79 µM) |  | 8 (≈ 39.2 µM) |  | 64 (≈ 313 µM) | 1 | 1 fold | 4 | 32 |  |  |  | 
3 | CO[C@H]1/C=C/O[C@@]2(C)Oc3c(C)c(O)c4c(O)c(c(/C=N/N5CCN(C)CC5)c(O)c4c3C2=O)NC(=O)/C(C)=C\C=C\[C@H](C)[C@H](O)[C@@H](C)[C@@H](O)[C@@H](C)[C@H](OC(C)=O)[C@@H]1C [Rifampin] | 64 (4,000) fold | 64 (≈ 77.8 µM) | 0.016 (1) fold | 0.016 (≈ 0.0194 µM) | 0.031 (2) fold | 0.031 (≈ 0.0377 µM) | 0.031 (2) fold | 0.031 (≈ 0.0377 µM) |  |  |  |  |  |  |  | 
4 | (+)-Calanolide A [(+)-Calanolide A (1)] |  |  |  |  |  |  |  |  | 1 | 1 fold | 1 | 1 | 8 | 8 | 8 | 8
5 | [H]/N=C(/N)N[C@H]1[C@H](O)[C@@H](O)[C@H](O[C@@H]2O[C@@H](C)[C@](O)(C=O)[C@H]2O[C@@H]2O[C@@H](CO)[C@H](O)[C@@H](O)[C@@H]2NC)[C@@H](N/C(N)=N\[H])[C@@H]1O [Streptomycin] |  | 0.25 (≈ 0.43 µM) |  | > 128 |  | 0.25 (≈ 0.43 µM) |  | 0.25 (≈ 0.43 µM) | 1 | (>512) fold | 1 | 1 |  |  |  | 
